Data as given in patent US6756371B1, “Phthalazinone derivatives as PDE4 inhibitors” (Altana Pharma AG, priority 1999, dated 2004).

Columns and labels:
[1] = tested on: PDE4; experiment: Inhibition of PDE4 activity (method of Bauer and Schwabe, adapted to microtitre plates); type: biochemical
Procedure: Inhibition f PDE 4 Activity
The activity test was carried out according to the method of Bauer and Schwabe, which was adapted to microtitre plates (Naunyn-Schmiederberg's Arch. Pharmacol. 311, 193-198. 1980). In this test, the PDE reaction is carried out in the first step. In a second step, the resultant 5′-nucleotide is cleaved to the uncharged nucleoside by a snake venom 5′-nucleotidase from Crotalus Atrox. In the third step, the nucleoside is separated from the remaining charged substrate on ion exchange columns. The columns are eluted directly into minivials using 2 ml of 30 mM ammonium formate (pH 6.0), to which a further 2 ml or scintillation fluid is added for counting.
The inhibitory values determined for the compounds according to the invention follow from the following table A, in which the numbers of the compounds correspond to the numbers of the examples.

| Compound | melting point [°C] | Inhibition of PDE4 activity [measured as −logIC50 (mol/l)] [1] |
| --- | --- | --- |
| CCOc1ccc(C2=NN(c3ccc(S(=O)(=O)N4CCOCC4)cc3)C(=O)C3CC=CCC23)cc1OCC (stereo not drawn) [compound 4, (cis)-4-(3,4-Diethoxyphenyl)-2-[4-(N-morpholinosulfonyl)phenyl]-4a,5,8,8a-tetrahydro-2H-phthalazin-1-one] | – | 9.22 |
| CCOc1ccc(C2=NN(c3ccc(C(=O)N4CCOCC4)cc3)C(=O)C3CC=CCC23)cc1OCC (stereo not drawn) [compound 1, (cis)-4-(3,4-Diethoxyphenyl)-2-[4-(N-morpholinocarbonyl)phenyl]-4a,5,8,8a-tetrahydro-2H-phthalazin-1-one] | 144 to 145 | 7.99 |
| COc1ccc(C2=NN(c3ccc(S(=O)(=O)N4CCOCC4)cc3)C(=O)C3CC=CCC23)c2c1OC(C)(C)C2 (stereo not drawn) [compound 5, (cis)-4-(2,3-Dihydro-2,2-dimethyl-7-methoxybenzofuran-4-yl)-2-[4(N-morpholinosulfonyl)phenyl]-4a,5,8,8a-tetrahydro-2H-phthalazin-1-one] | – | 9.71 |
| COc1ccc(C2=NN(c3ccc(C(=O)N4CCOCC4)cc3)C(=O)C3CC=CCC23)c2c1OC(C)(C)C2 (stereo not drawn) [compound 2, (cis)-4-(2,3-Dihydro-2,2-dimethyl-7-methoxybenzofuran-4-yl)-2-[4-(N-morpholinocarbonyl)-phenyl]-4a,5,8,8a-tetrahydro-2H-phthalazin-1-one] | – | 8.77 |

The next lines start with results.

| melting point [°C] | Compound | Inhibition of PDE4 activity [measured as −logIC50 (mol/l)] [1] |
| --- | --- | --- |
| 104 to 106 | CCOc1ccc(C2=NN(c3ccc(C(=O)N4CCSCC4)cc3)C(=O)[C@H]3CC=CC[C@@H]23)cc1OCC (relative stereo) [compound 3, (cis)-4-(3,4-Diethoxyphenyl)-2-[4-(1-thiomorpholin-4-ylcarbonyl)phenyl]-4a,5,8,8a-tetrahydro-2H-phthalazin-1-one] | 7.82 |
| 186 to 187 | CCOc1ccc(C2=NN(c3ccc(C(=O)N4CCS(=O)(=O)CC4)cc3)C(=O)[C@H]3CC=CC[C@@H]23)cc1OCC (relative stereo) [compound 6, (cis)-4-(3,4-Diethoxyphenyl)-2-[4-(1,1-dioxothiomorpholin-4-ylcarbonyl)phenyl]-4a,5,8,8a-tetrahydro-2H-phthalazin-1-one] | 7.81 |
